Target: T1, CB1 receptor (Mus musculus, UniProt P47746)
T1 construct: gene Cnr1; pcDNA3 CB1 (Addgene plasmid # 13391) overexpressed in COS7 cells
Assay: Fluo-8 Ca2+ imaging in CB1-transfected COS7 cells; concentration-response, blocked by AM251
Format: cell-based

T1 sequence (P47746 whole entry): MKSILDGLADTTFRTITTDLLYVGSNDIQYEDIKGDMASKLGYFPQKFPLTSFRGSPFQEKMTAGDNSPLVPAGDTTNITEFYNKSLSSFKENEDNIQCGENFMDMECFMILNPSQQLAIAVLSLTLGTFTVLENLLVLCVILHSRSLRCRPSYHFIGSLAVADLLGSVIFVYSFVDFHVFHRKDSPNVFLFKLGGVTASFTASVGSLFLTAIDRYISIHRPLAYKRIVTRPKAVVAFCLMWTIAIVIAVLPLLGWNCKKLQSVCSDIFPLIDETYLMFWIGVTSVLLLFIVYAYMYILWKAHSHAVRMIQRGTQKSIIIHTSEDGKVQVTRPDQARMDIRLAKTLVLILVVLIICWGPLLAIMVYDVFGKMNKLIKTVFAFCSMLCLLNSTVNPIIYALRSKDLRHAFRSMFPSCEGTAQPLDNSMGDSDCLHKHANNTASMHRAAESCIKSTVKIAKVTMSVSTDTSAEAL

SMILES	EC50 [nM]
CCCCC/C=C\C/C=C\C/C=C\C/C=C\CCCC(=O)OC(CO)CO [2-AG]	600
CCCCC/C=C\C/C=C\C/C=C\C/C=C\CCCC(=O)OC[C@@H](O)CO [1-AG]	1900

— article PMC5316530, “The Ratio of 2-AG to Its Isomer 1-AG as an Intrinsic Fine Tuning Mechanism of CB1 Receptor Activation” (Frontiers in Cellular Neuroscience, 2017)
